Measurements published in PMC6017406, “Synthesis and Physicochemical Evaluation of Entecavir-Fatty Acid Conjugates in Reducing Food Effect on Intestinal Absorption” (Molecules : A Journal of Synthetic Chemistry and Natural …, 2018).
Converted amounts (≈) assume the structure as drawn. Where two headings read alike, the source gives them in different places.

How the values were obtained:
[1] = parameters: method as in earlier work; conditions: oral 0.5 mg with high-fat meal (945 kcal, 54.6 g fat); cited from earlier work
[2] = Equilibrium solubility in biorelevant media; type: physicochemical; conditions: for solubility thermodynamic at 3 days: thermodynamic from solid, mean ± SD (n = 3)
Procedure: The equilibrium solubilities of lipidic prodrugs in biorelevant media such as FaSSGF, FeSSGF, FaSSIF, and FeSSIF [32, 33] were assessed. FaSSGF was prepared with 0.08 mM of sodium taurocholate, 0.02 mM of lecithin, and 34.2 mM of NaCl in 1000 mL of distilled water (pH 1.6). FaSSIF was prepared with 3 mM of sodium taurocholate, 0.2 mM of lecithin, 19.1 mM of malate, 68.62 mM of NaCl, and 34.8 mM of NaOH in 1000 mL of distilled water (pH 6.5, osmolality: 270 mOsm∙kg^−1). FeSSGF was prepared with 230.0 mM of NaCl, 17.1 mM of acetic acid, and 29.75 mM of sodium acetate, in 1000 mL of mixture of milk (full fat 3.5%) and distilled water (pH 5.0, osmolality: 400 mOsm∙kg^−1). FeSSIF was prepared with 10 mM of sodium taurocholate, 2 mM of lecithin, 5 mM of glyceryl monooleate, 0.8 mM of sodium oleate, 55.0 mM of malate, 125.5 mM of NaCl, and 81.6 mM of NaOH in 1000 mL of distilled water (pH 5.8, osmolality: 390 mOsm∙kg^−1).
An excess amount of drug (500 mg) was added to biorelevant media in a scintillation vial. Drug suspensions were sonicated for 30 min and then shaken at 37 °C for 3 days using a shaking incubator. Samples were then centrifuged at 13,000 rpm for 10 min and the supernatant was appropriately diluted with mobile phase. The concentration of EV-FA in the medium was analyzed using HPLC as described above.

[3] = In vitro dissolution test in biorelevant media (USP 29 paddle method); type: physicochemical
Procedure: The United States Pharmacopeia 29 paddle method was used to assess the release profile of EV-C12 powder using a VK 7000 dissolution tester (Varian Medical Industries, Palo Alto, CA, USA). The EV-FA powder equivalent to 0.5 mg of the parent compound was immersed in 900 mL of biorelevant media maintained at 37 °C ± 0.1 °C at a paddle speed of 50 rpm. At fixed time intervals, aliquots (about 4 mL) were drawn and centrifuged at 13,000 rpm for 10 min. An equal volume of the test medium pre-warmed at 37 °C ± 0.1 °C was used for immediate replacement. The supernatant was appropriately diluted with methanol and the drug concentration in the supernatant was assayed by HPLC, as described earlier.

[4] = parameters: method as in PMID 27503646; conditions: cited from earlier work
[5] = Hydrolysis in simulated gastric fluid (pH 1.2); type: physicochemical; conditions: simulated gastric fluid pH 1.2, 37 °C, after 12 h, 20 μg/mL
Procedure: To estimate the chemical stability of these synthesized ester prodrugs in the stomach, their hydrolysis behavior was evaluated in simulated gastric fluid (pH 1.2). Each compound (10 mg) was dissolved in ethanol (10 mL) and then serially diluted with simulated gastric fluid at a drug concentration of 20 μg/mL. […]

[6] = parameters: method as in PMID 14498759; conditions: humans; cited from earlier work
[7] = fassgf or other biorelevant, FaSSGF pH 1.6, 37 °C, read-out: Equilibrium solubility FaSSGF
[8] = fassgf or other biorelevant, FeSSGF pH 5.0, 37 °C, read-out: Equilibrium solubility FeSSGF
[9] = FaSSIF pH 6.5, 37 °C, read-out: Equilibrium solubility FaSSIF
[10] = FeSSIF pH 5.8, 37 °C, read-out: Equilibrium solubility FeSSIF
[11] = all biorelevant media, 37 °C, 50 rpm

Compound | solubility thermodynamic at 3 days [2, 7] [µg/mL] | solubility thermodynamic at 3 days [2, 8] [µg/mL] | solubility thermodynamic at 3 days [2, 9] [µg/mL] | solubility thermodynamic at 3 days [2, 10] [µg/mL] | Hydrolyzed percentage [5] [%] | also measured
C=C1[C@H](CO)[C@@H](O)C[C@@H]1n1cnc2c(=O)nc(N)[nH]c21 [EV, 2-amino-9-[(1S,3R,4S)-4-hydroxy-3-(hydroxymethyl)-2-methylidenecyclopentyl]-3H-purin-6-one, reference compound] | 8940 ± 92 (≈ 32200 µM) | 2152 ± 13 (≈ 7760 µM) | 1620 ± 23 (≈ 5860 µM) | 2240 ± 52 (≈ 8080 µM) |  | Decrease in maximum drug concentration in plasma [1]: 44–46%; solubility at 3 days ([2]; biorelevant media (FaSSGF, fassgf or other biorelevant, thermodynamic from solid), FaSSGF, FaSSIF, FeSSGF, FeSSIF, 37 °C, read-out: Aqueous solubility in all media tested): > 1600 µg/mL; Time to complete release ([3]; all biorelevant media (FaSSGF, FaSSIF, FeSSGF, FeSSIF), 37 °C, 50 rpm): ≤ 15 min; pKa [4]: 10.5; Solubility ([4]; distilled water at 25 °C): 2400 µg/mL (≈ 8660 µM); logP ([4]; pH 4 to 10): −1.110
C=C1[C@H](COC(=O)CCCCC)[C@@H](O)C[C@@H]1n1cnc2c(=O)[nH]c(N)nc21 [EV-C6, (1R,3S,5S)-3-(2-Amino-6-oxo-1H-purin-9(6H)-yl)-5-hydroxy-2-methylenecyclopentyl)methyl hexanoate] | 4.84 ± 0.5 (≈ 12.9 µM) | 24.9 ± 1.4 (≈ 66.3 µM) | 5.54 ± 0.6 (≈ 14.8 µM) | 25.2 ± 2.3 (≈ 67.1 µM) | 59.1 | 
CC(C)(C)C(=O)OCOP(=O)(COCCn1cnc2c(N)ncnc21)OCOC(=O)C(C)(C)C [adefovir dipivoxil] |  |  |  |  |  | Oral bioavailability [6]: 59%
Nc1ncnc2c1ncn2CCOCP(=O)(O)O [hydrophilic parent compound] |  |  |  |  |  | Oral bioavailability [6]: 12%

Further lines, with some results ahead:

solubility thermodynamic at 3 days [2, 7] [µg/mL] | solubility thermodynamic at 3 days [2, 8] [µg/mL] | solubility thermodynamic at 3 days [2, 9] [µg/mL] | solubility thermodynamic at 3 days [2, 10] [µg/mL] | Hydrolyzed percentage [5] [%] | Compound | also measured
4.74 ± 0.3 (≈ 11.7 µM) | 38.2 ± 1.5 (≈ 94.7 µM) | 5.74 ± 0.3 (≈ 14.2 µM) | 36.7 ± 1.2 (≈ 91 µM) | 46.2 | C=C1[C@H](COC(=O)CCCCCCC)[C@@H](O)C[C@@H]1n1cnc2c(=O)[nH]c(N)nc21 [EV-C8, ((1R,3S,5S)-3-(2-Amino-6-oxo-1H-purin-9(6H)-yl)-5-hydroxy-2-methylenecyclopentyl)methyl octanoate] | 
4.41 ± 0.1 (≈ 10.2 µM) | 61.9 ± 3.2 (≈ 143 µM) | 6.47 ± 0.6 (≈ 15 µM) | 66.6 ± 4.4 (≈ 154 µM) | 44.4 | C=C1[C@H](COC(=O)CCCCCCCCC)[C@@H](O)C[C@@H]1n1cnc2c(=O)[nH]c(N)nc21 [EV-C10, ((1R,3S,5S)-3-(2-Amino-6-oxo-1H-purin-9(6H)-yl)-5-hydroxy-2-methylenecyclopentyl)methyl decanoate] | 
4.82 ± 0.2 (≈ 10.5 µM) | 76.6 ± 4 (≈ 167 µM) | 6.5 ± 0.2 (≈ 14.1 µM) | 78.8 ± 7.7 (≈ 171 µM) | 22.5 | C=C1[C@H](COC(=O)CCCCCCCCCCC)[C@@H](O)C[C@@H]1n1cnc2c(=O)[nH]c(N)nc21 [EV-C12, ((1R,3S,5S)-3-(2-Amino-6-oxo-1H-purin-9(6H)-yl)-5-hydroxy-2-methylenecyclopentyl)methyl dodecanoate] | Percent released within 30 min [3, 11]: more than 50%; Percent released/dissolved within 2 h [3, 11]: more than 90%; Concentration of EV in dissolution medium formed by hydrolysis of the lipidic compound ([3]; all media): less than 1%; Release rate constant (Hixon-Crowell cube-root model) ([3]; fourth medium listed (presumably FeSSIF), r^2 = 0.933): 0.053 mg^1/3/h; Release rate constant (Hixon-Crowell cube-root model) ([3]; second medium listed (presumably FaSSIF), r^2 = 0.914): 0.036 mg^1/3/h; Release rate constant (Hixon-Crowell cube-root model) ([3]; third medium listed (presumably FeSSGF), r^2 = 0.879): 0.048 mg^1/3/h
